Laboratory results from patent US20240165114A1, “TREATMENT OF DIABETIC NEPHROPATHY WITH AN sGC STIMULATOR” (Cyclerion Therapeutics, Inc., priority 2019, published 2024).

What was measured:
[1] = tested on: adult patients with type 2 diabetes mellitus with albuminuria; test: Phase 2 study: 24-hour ambulatory blood pressure monitoring (ABPM); assay type: in vivo, human; settings: ITT, 24-Hour ABPM
Description: Hemodynamic and vital signs that were measure included seated and standing BP (systolic and diastolic) and pulse measurements by automated office blood pressure (AOBP), ambulatory BP (systolic and diastolic) and pulse monitoring, respiratory rate, oral temperature. Orthostatic (standing minus seated) measurements were calculated for BPs and pulse.
(§1) This multicenter, randomized, double-blind, placebo-controlled, parallel-group study evaluated 2 dose levels of IW-1973 compared with placebo. The study population consisted of adult patients with type 2 diabetes mellitus, albuminuria, and impaired renal function. Patients had to have been taking antihyperglycemic medications for at least 12 weeks with their regimen being stable (ie, drug and dose) for at least 28 days before the Randomization Visit. Additionally, patients had to have been on a stable regimen of angiotensin-converting enzyme inhibitor (ACEi) or an angiotensin receptor blocker (ARB), for at least 28 days before the Randomization Visit. For more details, see Inclusion Criteria below. A total of 156 patients (approximately 50 patients per arm) were stratified by baseline estimated glomerular filtration rate (eGFR) into three groups: eGFR 30 to 45, >45 to 60, and >60 to 75 mL/min/1.73 m^2) and randomized approximately 1:1:1 to total daily 20 mg IW-1973, 40 mg IW-1973, or placebo.
Screening Period: The Screening Period began with the signature of the informed consent form (ICF) at the Screening Visit and lasted up to 45 days. At the Screening Visit (which could occur from Day −45 to Day −15), patients underwent preliminary screening procedures to determine their eligibility. Eligible patients returned to the clinic for the Baseline Visit ([…]) for baseline and eligibility assessments including 24-hour ambulatory blood pressure monitoring (ABPM). The end of the Screening Period coincided with the beginning of the Treatment Period.
(§2) Dosing on Days 1 to 7 (±1) was BID (twice daily), morning and evening; dosing on Day 8 (±1) and onward was QD (once daily), 2 tablets in the morning. At the Randomization Visit on Day 1, patients received their morning dose of study drug in the clinic and underwent safety, efficacy, and pharmacokinetic (PK) assessments, including blood and urine collections at prespecified times. Patients stayed in the clinic at least 6 hours postdose and were able to leave the clinic at the Investigator's discretion following all study procedures. At the Week 1 Visit on Day 8 (±1), patients returned to the clinic and received their first QD dose of study drug in the clinic. Patients underwent safety, efficacy, and PK assessments, including blood and urine collections at prespecified times. Patients stayed in the clinic at least 6 hours postdose and were able to leave the clinic at the Investigator's discretion following all study procedures. At the Week 4 (Day 29±3), Week 8 (Day 57±3), and End of Treatment (Day 87±3) Visits, patients returned to the clinic for study drug administration; safety, efficacy, and PK assessments; and study drug supply, if applicable.

[2] = patient concomitantly taking a strong CYP3A inhibitor; cited from earlier work
[3] = tested on: adult patients with type 2 diabetes mellitus with albuminuria; test: Phase 2 study: change from baseline in urine albumin to creatinine ratio (UACR); assay type: in vivo, human; settings: for Between PRL and PBO Group Geometric Mean % Change UACR from Baseline: placebo adjusted; for UACR: Mean CFB at Weeks 8 & 12, Placebo Adjusted / UACR: Mean CFB at Weeks 8 & 12, Within Group: text b231-232 says Week 12
Description: A Multicenter, Randomized, Double-blind, Placebo-controlled, Phase2 Study to Evaluate the Safety and Efficacy of IW-1973 in Patients with Type 2 Diabetes with Albuminuria Treated with Renin-Angiotensin System Inhibitors
The primary objectives of this clinical study (Clinical Trials.gov Identifier NCT03217591) were to assess the safety and tolerability and to evaluate the effect of oral IW-1973 on renal function when administered daily for approximately 12 weeks to adult patients with type 2 diabetes mellitus with albuminuria who were on a stable regimen of renin-angiotensin system inhibitors ([…] or ARBs).
The primary efficacy endpoint of this trial was the change from baseline in Urine Albumin to Creatinine Ratio (UACR) at Weeks 8 and 12. UACR was determined as the concentration of urine albumin [mg/dL] divided by the concentration of urine creatinine [g/dL]) from urinalysis. First morning void urine samples were collected. To reduce variability, the measurement of UACR was the average of 2-first morning void tests at each timepoint.
as §1
Treatment Period: The Treatment Period began on Day 1 at Randomization (there was no Day 0) and ended after the End of Treatment Visit on Day 87 (±3). Patients were stratified in one of three groups by baseline eGFR (ie, eGFR 30 to 45, >45 to 60, and >60 to 75 mL/min/1.73 m2) and randomized in an approximate1:1:1 ratio to receive 20 mg IW-1973, 40 mg IW-1973, or placebo for approximately 12 weeks.
as §2
One week at 10 mg BID followed by 20 mg QD for the remainder of the trial, i.e., a 20 mg total daily dosage; or
One week at 20 mg BID, followed by 40 mg QD for the remainder of the trial, i.e., a 40 mg total daily dosage.

[4] = ITT, Week 12, PRL 20 mg total daily
[5] = ITT, Week 12, PRL 40 mg total daily
[6] = ITT, Weeks 8 & 12, PRL 20 mg total daily

**Q.** What does the source list for `OC(CNc1nc(-c2cc(-c3ccon3)n(Cc3ccccc3F)n2)ncc1F)(C(F)(F)F)C(F)(F)F` [Compound I, praliciguat]?
**A.** Between PRL and PBO Group LS Mean Change 24-hour MAP from Baseline at week 12 ([1]; PRL 20 mg): −3.96 mmHg; Between PRL and PBO Group LS Mean Change 24-hour SBP from Baseline at week 12 ([1]; PRL 20 mg): −4.06 mmHg; Within Group LS Mean Change from Baseline 24-hour MAP at Week 12 ([1]; PRL 20 mg): −3.62 mmHg; Within Group LS Mean Change from Baseline 24-hour SBP at Week 12 ([1]; PRL 20 mg): −4.18 mmHg; Between PRL and PBO Group LS Mean Change 24-hour MAP from Baseline at week 12 ([1]; PRL 40 mg): −3.58 mmHg; Between PRL and PBO Group LS Mean Change 24-hour SBP from Baseline at week 12 ([1]; PRL 40 mg): −4.29 mmHg; Within Group LS Mean Change from Baseline 24-hour MAP at Week 12 ([1]; PRL 40 mg): −3.23 mmHg; Within Group LS Mean Change from Baseline 24-hour SBP at Week 12 ([1]; PRL 40 mg): −4.41 mmHg; Between PRL and PBO Group LS Mean Change 24-hour MAP from Baseline at week 12 ([1]; PRL Combined): −3.77 mmHg; Between PRL and PBO Group LS Mean Change 24-hour SBP from Baseline at week 12 ([1]; PRL Combined): −4.17 mmHg; Within Group LS Mean Change from Baseline 24-hour MAP at Week 12 ([1]; PRL Combined): −3.43 mmHg; Within Group LS Mean Change from Baseline 24-hour SBP at Week 12 ([1]; PRL Combined): −4.30 mmHg; AUC with concomitant strong CYP3A inhibitor versus without [2]: doubled; T1/2 with concomitant strong CYP3A inhibitor versus without [2]: doubled; Within Group Geometric Mean % Change UACR from Baseline [3, 4]: −35.2%; Between PRL and PBO Group Geometric Mean % Change UACR from Baseline [3, 4]: −23.9%; Within Group Geometric Mean % Change UACR from Baseline [3, 5]: −26.4%; Between PRL and PBO Group Geometric Mean % Change UACR from Baseline [3, 5]: −13.6%; Within Group Geometric Mean % Change UACR from Baseline ([3]; ITT, Week 12, PRL Combined): −30.9%; Between PRL and PBO Group Geometric Mean % Change UACR from Baseline ([3]; ITT, Week 12, PRL Combined): −18.9%; Within Group Geometric Mean % Change UACR from Baseline [3, 6]: −28.4%; Between PRL and PBO Group Geometric Mean % Change UACR from Baseline [3, 6]: −16.0%; Within Group Geometric Mean % Change UACR from Baseline ([3]; ITT, Weeks 8 & 12, PRL 40 mg total daily): −27.3%; Within Group Geometric Mean % Change UACR from Baseline ([3]; ITT, Weeks 8 & 12, PRL Combined (20 and 40 mg)): −27.8%; placebo-adjusted reduction (mean percent decrease) from baseline in UACR ([3]; ITT, combined praliciguat groups, Weeks 8 and 12): 15%; reduction from baseline in UACR ([3]; ITT, combined praliciguat groups, over 12 weeks (weeks 8 and 12)): 28%; UACR Mean % CFB at Weeks 8 & 12, Placebo Adjusted ([3]; mITT Population, PRL 20 mg): −14.8%; UACR Mean % CFB at Weeks 8 & 12, Within Group ([3]; mITT Population, PRL 20 mg): −18.4%; UACR: Mean CFB at Weeks 8 & 12, Placebo Adjusted ([3]; mITT Population, PRL 20 mg): −21.5%; UACR: Mean CFB at Weeks 8 & 12, Within Group ([3]; mITT Population, PRL 20 mg): −24.7%; UACR Mean % CFB at Weeks 8 & 12, Placebo Adjusted ([3]; mITT Population, PRL 40 mg): −25.1%; UACR Mean % CFB at Weeks 8 & 12, Within Group ([3]; mITT Population, PRL 40 mg): −28.3%; UACR: Mean CFB at Weeks 8 & 12, Placebo Adjusted ([3]; mITT Population, PRL 40 mg): −24.2%; UACR: Mean CFB at Weeks 8 & 12, Within Group ([3]; mITT Population, PRL 40 mg): −27.4%; UACR Mean % CFB at Weeks 8 & 12, Placebo Adjusted ([3]; mITT Population, PRL Combined): −20.1%; UACR Mean % CFB at Weeks 8 & 12, Within Group ([3]; mITT Population, PRL Combined): −23.5%; UACR: Mean CFB at Weeks 8 & 12, Placebo Adjusted ([3]; mITT Population, PRL Combined): −22.9%; UACR: Mean CFB at Weeks 8 & 12, Within Group ([3]; mITT Population, PRL Combined): −26.1%; placebo-adjusted mean percent decrease in UACR ([3]; mITT Population, combined praliciguat treatment groups, Week 12): 23%; placebo-adjusted mean percent decrease from baseline in UACR ([3]; mITT Population, combined praliciguat treatment groups, Weeks 8 and 12): 20%; placebo-corrected mean reduction from baseline in UACR ([3]; mITT, participants with eGFR 30-45 mL/min/1.73 m^2 at baseline, 12-week treatment): 30-40%
